The source of these data is US20160058847A1, “IS100- A Highly Effective Enzyme Principle For Use In Dermal Therapeutics, And For Health And Beauty” (Issar Pharmaceuticals Pvt. Ltd., priority 2014, published 2016).

The test system of test [1] is IS 100. Format: biochemical, wheat. The conditions noted are these: pH 7, 37° C.; for inhibition of IS 100 activity (in words): Ac-DEVD-AFC hydrolysis, 20 mM HEPES, 0.05% CHAPS, 5% sucrose, FIG. 3. The procedure: As described above, the proteolytic activity of IS 100 can be blocked by using an inhibitor which blocks the active site of the protein enzyme present in the IS 100 principle. In FIG. 2 inhibitor Ac-DEVD-CHO inhibits the activity of IS 100. Several other chemicals or compounds can be tested for their efficacy in blocking the activity of IS 100. In such experiments, IS 100 is mixed with its synthetic substrate Ac-DEVD↓-AFC, and a constant volume of the inhibitor compound is added to check the extent to which the inhibitor blocks the activity of IS 100. In all experimental runs the concentrations of IS 100 and Ac-DEVD↓-AFC are maintained uniformly. The pH for all experiments is kept at 7 and the experiments are run at 37° C.

Test [2] relates to IS 100. The conditions noted are these: Ac-DEVD-AFC hydrolysis.
Protocol: Rates of hydrolysis of a synthetic peptide Ac-DEVD↓-AFC (N-acetyl-Asp-Glu-Val-Asp-7-amino-4-trifluoromethylcoumarin) as a function of variables are plotted. Note that the rate, ΔF, is determined from the initial slope of the time-dependent fluorescence trace.
In the present test, 400 μL of IS 100 is combined with 2 μL of a 1 mM solution of Ac-DEVD↓-AFC, and the fluorescence is monitored as a function of time at 37° C.
Test [3] concerns human recombinant PKR. Kind of test: Proteolytic cleavage of PKR by IS 100, Western analysis. Format: biochemical. To be noted: inhibitor included in reaction mixture, FIG. 2 lane 1. The procedure: (§1) FIG. 2 illustrates proteolytic cleavage by formulation IS 100 shown by Western analysis of cleavage products of substrate proteins. IS 100 was incubated with the test protein in the presence and absence of the synthetic inhibitor Ac-DEVD-CHO, and the reaction product was immunoblotted using antibody for the test protein.
(§2) These two proteins were chosen simply because of their ready availability with the investigators. In fact, any protein will be a substrate for IS 100. In a typical protocol, IS 100 is incubated with the test substrate protein in the presence and absence of the synthetic inhibitor Ac-DEVD-CHO, and the reaction products are analyzed by electrophoresis, the amount of the uncut test protein is immunoblotted with human anti-PKR or anti-PERK antibodies. Note that immunoblotting of a test protein by using the corresponding antibody will show the status of that protein alone, and not other proteins present in IS 100.

Test [4] has as its system human recombinant PERK. Kind of test: Proteolytic cleavage of PERK by IS 100, Western analysis. The class given is biochemical. The conditions noted are these: inhibitor included in reaction mixture, FIG. 2 lane 1. The procedure:
as §1, §2

“Also recorded” adds a separate entry of the source.

Regarding `CC(=O)N[C@@H](CC(C)C)C(=O)N[C@@H](CC(C)C)C(=O)N[C@H](C=O)CCCNC(=N)N` [leupeptin], the “inhibition of IS 100 activity (in words)” value in test [1] was “influences the activity to some extent”. Further, the “inhibition of IS 100 activity, saturation level” value in test [1] (at ~25 μM, FIG. 3B) worked out at 30%.
On to `[Cl-].[Cl-].[Mg+2]` [MgCl2, magnesium chloride], for which, in test [2] (FIG. 1F), the “concentration at which the activity passes through a minimum” value is recorded as ~0.1 mM.
Regarding `O=C(O)CI` [IAA, Iodoacetic acid], in test [1], the “inhibition of IS 100 activity (in words)” value was “completely inhibits the activity; also recorded: almost completely knocks out the activity”.
Turning to `[Cl-].[Na+]` [NaCl, sodium chloride], the “effect of NaCl concentration on enzyme activity” value in test [2] (FIG. 1D) is given as “highly sensitive”.
As for `O=S(=O)(F)Cc1ccccc1` [PMSF, phenylmethanesulfonyl fluoride], in test [1], the “inhibition of IS 100 activity (in words)” value is “only marginally; also recorded: sign of inhibition is also apparent”. For the same molecule, in test [1] (at 1000 μM, FIG. 3C), the “inhibition of IS 100 activity” value was ~10%.
As to `[Cl-].[Cl-].[Zn+2]` [ZnCl2, zinc chloride], the Kd in test [2] (read-out: apparent binding constant, KZn app (inhibition), FIG. 1E) is 310 µM.
Regarding Ac-DEVD-CHO, the “inhibition of IS 100 activity (in words)” value in test [1] was “inhibits the activity of IS 100 significantly”. Further, the “block of PKR cleavage by IS 100” value in test [3] is “cleavage is blocked; also recorded: not cleaved”. Also, the “block of PERK cleavage by IS 100” value in test [4] is recorded as “cleavage is blocked; also recorded: not cleaved”.
